Values of other authors as cited in paper PMC8999965 (Materials, 2022).

Parameters: method as in earlier work
Details: for EI(PCOP=0), environmental index excluding Photochemical Oxidation Potential: PCOP score excluded from summation; for EI, overall environmental index: sum of toxicity and environmental impact scores

Question: For `CCN1CCOCC1` [4-ethylmorpholine], which “EI(PCOP=0), environmental index excluding Photochemical Oxidation Potential” value is on record?
Answer: Its value is 2.12.

Question: What about the “EI, overall environmental index” value of the same compound?
Answer: Its value is 2.12.

Question: For `O=CN1CCOCC1` [4-formylmorpholine], which “EI(PCOP=0), environmental index excluding Photochemical Oxidation Potential” value is on record?
Answer: The value was 0.51.

Question: What about the “EI, overall environmental index” value of the same compound?
Answer: The value was 0.51.

Question: For `C[S+](C)[O-]` [DMSO, dimethyl sulfoxide], which “EI(PCOP=0), environmental index excluding Photochemical Oxidation Potential” value is on record?
Answer: Its value is 0.26.

Question: What about the “EI, overall environmental index” value of the same compound?
Answer: Its value is 11.68.

Question: For `CC(C)=O` [acetone], which “EI(PCOP=0), environmental index excluding Photochemical Oxidation Potential” value is on record?
Answer: The value was 0.66.

Question: And the “EI, overall environmental index” value?
Answer: The value was 1.27.

Question: With `CC#N` [acetonitrile] as the compound, how does the “EI(PCOP=0), environmental index excluding Photochemical Oxidation Potential” value read?
Answer: Its value is 1.88.

Question: What about the “EI, overall environmental index” value of the same compound?
Answer: Its value is 1.88.

Question: Which results are given for `C1COCCN1` [morpholine]?
Answer: EI(PCOP=0), environmental index excluding Photochemical Oxidation Potential: 2.95; EI, overall environmental index: 2.95
